Source: article PMC6934184, “Selective DNA-PKcs inhibition extends the therapeutic index of localized radiotherapy and chemotherapy” (The Journal of Clinical Investigation, 2019)

Biological target: T1, NTRK1 (TRKA) (Homo sapiens, UniProt P04629)
T1 construct: purchased Thermo Fisher Scientific (Life Technologies) SelectScreen
Assay: SelectScreen Z'LYTE
Assay type: biochemical
Procedure, shortened: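 SelectScreen broad panel; activity (Z'LYTE, Adapta) plus binding formats. ATP: Km app for CSF1R Z'LYTE; 10 for CAMK1 Adapta. Readout = % per kinase.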

T1 sequence (P04629 33-796): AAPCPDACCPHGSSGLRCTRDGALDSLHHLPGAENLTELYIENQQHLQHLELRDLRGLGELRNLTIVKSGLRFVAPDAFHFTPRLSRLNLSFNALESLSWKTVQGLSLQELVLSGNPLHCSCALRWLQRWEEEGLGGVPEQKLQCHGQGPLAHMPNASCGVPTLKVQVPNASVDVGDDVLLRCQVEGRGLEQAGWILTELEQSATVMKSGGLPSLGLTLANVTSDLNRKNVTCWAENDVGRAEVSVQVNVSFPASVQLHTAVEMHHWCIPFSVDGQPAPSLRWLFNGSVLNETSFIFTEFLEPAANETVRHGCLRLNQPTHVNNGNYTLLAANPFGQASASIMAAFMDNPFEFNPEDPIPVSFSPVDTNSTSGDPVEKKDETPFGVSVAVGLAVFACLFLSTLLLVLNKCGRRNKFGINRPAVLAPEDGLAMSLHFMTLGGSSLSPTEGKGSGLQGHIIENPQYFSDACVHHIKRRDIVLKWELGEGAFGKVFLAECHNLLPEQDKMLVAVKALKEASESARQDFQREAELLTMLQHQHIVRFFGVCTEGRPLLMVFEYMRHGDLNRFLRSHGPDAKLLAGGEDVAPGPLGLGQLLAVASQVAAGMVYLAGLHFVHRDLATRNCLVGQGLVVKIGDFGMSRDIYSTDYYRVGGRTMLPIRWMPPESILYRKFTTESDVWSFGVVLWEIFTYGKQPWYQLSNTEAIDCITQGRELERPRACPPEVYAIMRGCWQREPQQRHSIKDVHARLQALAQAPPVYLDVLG

Q: Which inhibition at 1 µM does the source give for `CN(C(=O)CN1CCOCC1)c1ccc2sc3c(-c4cccc5c(=O)cc(N6CC7CCC(C6)O7)oc45)cccc3c2c1` [NU5455] here?
A: The inhibition at 1 µM was 1.3%.
